These results are taken from patent US5026554A, “Method of inhibiting fungal growth using squalene synthetase inhibitors” (Merck & Co., Inc., priority 1990, dated 1991).

One assay concerns A. nidulans R21. The assay can be described thus: antifungal MIC, microtiter dilution assay, filamentous fungi. It is filed as cell-based. Particulars: Aspergillus nidulans, 42 hours, 28° C., read-out: Minimum Inhibitory Concentration. On the procedure: (§1) The compounds are particularly active towards filamentous fungi and yeasts including Candida albicans and Cryptococcus neoformans. The sensitivity of filamentous fungi and yeast was determined using inhibitor dilution assays in microtiter format. The compounds were dissolved in DMSO at 2 mg/ml and serially diluted in 0.1M phosphate buffer, pH 7.0 in the microtiter dish from 100 to 0.006 μg/ml. A standardized spore suspension for testing the filamentous fungi was prepared by inoculating Antibiotic Medium #3 containing 1.5% agar with spores such that 1.5×10^3 colony forming units were added per well. The microtiter wells were filled with 50 μl of buffer containing compound and 50 μl of inoculated medium.
(§2) The sensitivity of yeasts was determined by inoculating yeast nitrogen base containing 1% dextrose (YNB/G) with aliquots of an overnight yeast culture grown in Yeast Morphology (YM) media at 35° C. and diluting in YNB/G to yield a final concentration of 1.5-7.5×10^3 colony forming units/well. To test the sensitivity of yeast, compound was solubilized in 10 percent aqueous DMSO at 2.56 mg/ml. The compound was diluted serially in YNB/G from 128 to 0.06 μg/ml and further diluted 1:10 in YNB/G. The wells were filled with 150 μl of media containing drug. […]

For another assay, the system named is Aspergillus flavus MF383. The assay is described as above. It is filed as cell-based. Conditions: 42 hours, 28° C., read-out: Minimum Inhibitory Concentration. As for the experimental part:
as §1, §2

The target in the next assay is T1, Squalene Synthetase (Rattus norvegicus, UniProt Q02769).
T1 construct: from tissue; host or cells: liver microsomes of male Charles River CD rats fed 0.1% lovastatin
T1 sequence (Q02769 1-416): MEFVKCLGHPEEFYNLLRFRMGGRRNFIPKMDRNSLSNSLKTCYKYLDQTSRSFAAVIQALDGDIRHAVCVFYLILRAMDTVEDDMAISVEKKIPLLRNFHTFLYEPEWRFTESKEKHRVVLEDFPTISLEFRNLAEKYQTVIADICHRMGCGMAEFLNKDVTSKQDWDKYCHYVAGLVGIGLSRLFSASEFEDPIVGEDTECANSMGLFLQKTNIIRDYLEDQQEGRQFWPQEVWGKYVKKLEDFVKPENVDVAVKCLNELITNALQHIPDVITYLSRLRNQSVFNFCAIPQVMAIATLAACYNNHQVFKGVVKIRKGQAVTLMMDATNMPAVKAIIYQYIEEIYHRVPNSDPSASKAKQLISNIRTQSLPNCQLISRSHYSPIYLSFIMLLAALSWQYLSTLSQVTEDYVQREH
The assay can be described thus: Squalene Synthetase Assay (intrinsic squalene synthetase inhibitory activity). It is filed as biochemical. Particulars: rat liver microsomes, [4-14C]farnesyl-pyrophosphate, 30° C., 20 minutes. As for the experimental part: The intrinsic squalene synthetase inhibitory activity of representative compounds of this invention was measured by the standard in vitro protocol described below:
Male, Charles River CD rats (120 to 150 g) were fed a diet containing 0.1% lovastatin for 4 days. The livers from these rats were homogenized in 5 volumes (ml/g) of ice cold 50 mM HEPES (4-(2-hydroxyethyl)-1-piperazine-ethanesulfonic acid), 5 mM EDTA(ethylenediaminetetraacetic acid) pH 7.5 with a Potter-Elvehjem type tissue grinder. The homogenate was centrifuged twice at 20,000×g for 15 minutes at 4° C., discarding the pellet each time. The supernatant was then centrifuged at 100,000×g for 1 hour at 4° C. The resulting microsomal pellet was resuspended in a volume of the above homogenizing buffer equal to one-fifth the volume of the original homogenate. This microsomal preparation has a protein concentration of about 7 mg/ml. The microsomal suspensions were stored in aliquots at -70° C. Squalene synthetase activity in these aliquots is stable for at least several months.
Prenyl transferase was purified to use in the enzymatic synthesis of radiolabelled farnesyl pyrophosphate. Prenyl transferase was assayed by the method of Rilling (Methods in Enzymology 110, 125-129 (1985)) and a unit of activity is defined as the amount of enzyme that will produce 1 μ mole of farnesyl pyrophosphate per minute at 30° C. in the standard assay. […]
(Liver microsomes are vesicles of endoplasmic reticulum, rich in cytochrome P450 enzymes.)

The test system of the next assay is C. tropicalis MY1012. Put plainly: antifungal MIC, microtiter dilution assay, yeast. The class given is cell-based. Particulars: Candida tropicalis, YNB/G, 24 to 48 hours, 35° C., read-out: Minimum Inhibitory Concentration. As for the experimental part:
as §1
(§3) The sensitivity of yeasts was determined by inoculating yeast nitrogen base containing 1% dextrose (YNB/G) with aliquots of an overnight yeast culture grown in Yeast Morphology (YM) media at 35° C. and diluting in YNB/G to yield a final concentration of 1.5-7.5×10^3 colony forming units/well. To test the sensitivity of yeast, compound was solubilized in 10 percent aqueous DMSO at 2.56 mg/ml. The compound was diluted serially in YNB/G from 128 to 0.06 μg/ml and further diluted 1:10 in YNB/G. The wells were filled with 150 μl of media containing drug. The minimum inhibitory concentration (MIC) is defined as the lowest concentration to prevent growth after an incubation for 42 hours, at 28° C. for the filamentous fungi and 24 to 48 hours, at 35° C. for the yeasts. Representative of the antifungal activity are the minimum inhibitory concentration data shown below.

The next assay concerns Crypt. neoformans MY1051. The assay can be described thus: antifungal MIC, microtiter dilution assay, yeast. Particulars: Cryptococcus neoformans, YNB/G, 24 to 48 hours, 35° C., read-out: Minimum Inhibitory Concentration. It is filed as cell-based. On the procedure: as §1, §3
The test system of the next assay is Candida albicans MY1055. The assay can be described thus: antifungal MIC, microtiter dilution assay, yeast. The class given is cell-based. Conditions: YNB/G, 24 to 48 hours, 35° C., read-out: Minimum Inhibitory Concentration. As for the experimental part:
as §1, §3

In the next assay the test system is C. parapsilosis MY1010. Put plainly: antifungal MIC, microtiter dilution assay, yeast. It is filed as cell-based. Particulars: Lodderomyces parapsilosis, YNB/G, 24 to 48 hours, 35° C., read-out: Minimum Inhibitory Concentration. As for the experimental part: as §1, §3

Converted amounts (≈) assume the structure as drawn.

For the molecule `CC(=O)OC(CCCC12OC(C(=O)O)C(O)(C(=O)O)C(C(=O)O)(O1)C(OC(=O)CCC=CC(C)CCCc1ccccc1)C2O)C(C)Cc1ccccc1` (stereo not shown) [Compound A], the MIC with A. nidulans R21 worked out at 1.5 µg/mL (≈ 1.99 µM); with Aspergillus flavus MF383, 1.5 µg/mL (≈ 1.99 µM); in the assay with C. tropicalis MY1012, 8 µg/mL (≈ 10.6 µM); in the assay on Crypt. neoformans MY1051, 1 µg/mL (≈ 1.32 µM); in the assay on Candida albicans MY1055, 16 µg/mL (≈ 21.2 µM); with C. parapsilosis MY1010 it was 8 µg/mL (≈ 10.6 µM). In addition, 9 nM corresponded to half-maximal inhibition against Squalene Synthetase (IC50).
